This is an account of results in patent publication US12054482B2, “TLR8 agonist” (CHIA TAI TIANQING PHARMACEUTICAL GROUP CO., LTD., priority 2018, dated 2024).

Structures are written as SMILES. pEC50: −log10 of the molar value. Where a name gives a salt, the structure may show the parent alone. Read-outs that look alike come from different tables or passages of the source.

This test deals with human peripheral blood mononuclear cells (hPBMCs). As to the kind of experiment: Cytokine induction in human peripheral blood mononuclear cells. The format is cell-based. Conditions: PBMC, hPBMC, 24 hours. The source says:
Experimental Example 2: Experimental Procedure for Peripheral Blood Mononuclear Cell
TLR8 is a receptor for the innate immune system to sense exogenous pathogens, and can recognize exogenous viral single-stranded RNA and cause the release of a series of cytokines such as TNF-α, IL-12, IFN-γ to elicit an antiviral immune response; TLR7 is another receptor for the innate immune system to sense exogenous pathogens and, when activated, produces primarily such antiviral cytokines as IFN-α. In this experiment, a potential compound of TLR8 agonist was used to stimulate human peripheral blood mononuclear cells (hPBMCs), and the levels of TNF-α, IL-12p40, IFN-γ and IFN-α above were measured to reflect the activation of the compound on TLR8 receptor and its selectivity for TLR8/TLR7.
The experimental procedures are as follows: • 1. Fresh blood of healthy volunteers was collected, and anticoagulated with an EDTA-K2 anticoagulation tube (catalog No. BD-8516542); • 2. hPBMC cells in the middle cloud-like layer were separated after Ficoll density gradient centrifugation, and washed twice with RPMI1640 (source: Gibco, catalog No. 224400-089) containing 10% serum, and the culture medium was resuspended to 10 mL. After the cells were counted with Vi-cell cell counter, the concentration of cell suspension was adjusted to 2×10^6/mL; • 3. The compound was dissolved in DMSO to 100 mM, and diluted to 50 mM and 2 mM with DMSO, which were served as initial concentrations. Then the solutions were each diluted sequentially in a 3-fold gradient (sample at a previous concentration (5 μL)+DMSO (10 μL)) to obtain 8 gradients. The resulting solutions were respectively subjected to 500-fold dilution with the culture medium to prepare the working solutions of the compound; • 4. 100 μL of hPBMC suspension and 100 μL of compound working solution were added to each well of a U-bottom 96-well plate, with the final concentrations being 2000 nM, 666.7 nM, 222.2 nM, 74.1 nM, 24.7 nM, 8.2 nM, 2.7 nM and 0.9 nM respectively, and incubated for 24 hours. Then the supernatants were collected and cryopreserved at −20° C. for the detection of TNF-α, IFN-γ and IL-12p40 cytokines. The other group of compound samples, with the final concentrations being 50 μM, 16.7 μM, 5.6 μM, 1.9 μM, 0.6 μM, 0.2 μM, 0.1 μM and 0.02 μM respectively, were incubated for 24 hours. […] IL-12p40, TNF-α and IFN-γ in the supernatant were detected by flow cytometric bead array (CBA); IFN-α in the cell supernatant was detected by enzyme-linked immuno sorbent assay (ELISA). • 6. Data analysis: compound activity: EC50 values (half maximal effect concentration) were analyzed using a GraphPad Prism software and the dose-response curves of the compound were fitted to calculate EC50 values for the compound.

For the molecule `CCCC[C@](C)(Cc1ncn[nH]1)Nc1nc(N)nc2cnccc12` [Hydrochloride of Example 1], the pEC50 is 7.54 (CBA, TLR8 pathway cytokine, read-out: IFN-γ EC50); 7.59 (CBA, TLR8 pathway cytokine, read-out: IL-12p40 EC50); 6.98 (CBA, TLR8 pathway cytokine, read-out: TNF-α EC50); 5.55 (ELISA, TLR7 pathway cytokine, read-out: IFN-α EC50).
